From paper PMC4503722, “Novel Phenotypic Outcomes Identified for a Public Collection of Approved Drugs from a Publicly Accessible Panel of Assays” (PLoS ONE, 2015)

What was measured:
[1] = system: HT-29; assay: cells; format: cell-based; conditions: for Basal_Viability ATP HT-29 IC50/EC50: assay number 28
[2] = system: HCT116 cells treated with a GSK3β inhibitor; assay: cells; format: cell-based; conditions: for GSK3b inh pretreated_Viability ATP HCT116 IC50/EC50: assay number 26, GSK3b inhibitor pretreated; for IC50/EC50, GSK3b inh pretreated_Viability ATP HCT116 (assay number 26): GSK3b inh pretreated
[3] = system: ECFC/ADSC co-culture cell nuclei number
[4] = system: SW480; assay: cells; format: cell-based; conditions: for Basal_Viability ATP SW480 IC50/EC50: assay number 24
[5] = system: SNU-C1; assay: cells; format: cell-based; conditions: for Basal_Viability ATP SNU-C1 IC50/EC50: assay number 30
[6] = system: RKO; assay: cells; format: cell-based; conditions: for Basal_Viability ATP RKO IC50/EC50: assay number 29
[7] = system: DLD-1; assay: cells; format: cell-based; conditions: for Basal_Viability ATP DLD-1 IC50/EC50: assay number 23
[8] = system: HCT116; assay: cells; format: cell-based; conditions: for Basal_Viability ATP HCT116 IC50/EC50: assay number 25; for Basal_Viability ATP HCT116 IC50/EC50 / IC50/EC50, Basal_Viability ATP HCT116 (assay number 25): basal
[9] = system: Colo320; assay: cells; format: cell-based; conditions: for Basal_Viability ATP Colo 320 IC50/EC50: assay number 27
[10] = system: endothelial tube formation in co-cultures of ECFCs and ADSCs treated with VEGF; assay: cells; format: cell-based, human

| Compound | VEGF_ADSC\ECFC Angio Hoechst NucArea IC50/EC50 [3] [µM] | VEGF_ADSC\ECFC Angio CD31 TubeArea IC50/EC50 [10] [µM] | GSK3b inh pretreated_Viability ATP HCT116 IC50/EC50 [2] [µM] | Basal_Viability ATP HCT116 IC50/EC50 [8] [µM] | IC50/EC50, Basal_Viability ATP HT-29 (assay number 28) ([1]; basal) [µM] | IC50/EC50, GSK3b inh pretreated_Viability ATP HCT116 (assay number 26) [2] [µM] | IC50/EC50, VEGF_ADSC\ECFC Angio Hoechst NucArea (assay number 3) [3] [µM] | IC50/EC50, Basal_Viability ATP SW480 (assay number 24) ([4]; basal) [µM] | IC50/EC50, Basal_Viability ATP SNU-C1 (assay number 30) ([5]; basal) [µM] | IC50/EC50, Basal_Viability ATP RKO (assay number 29) ([6]; basal) [µM] | IC50/EC50, Basal_Viability ATP DLD-1 (assay number 23) ([7]; basal) [µM] | IC50/EC50, Basal_Viability ATP HCT116 (assay number 25) [8] [µM] | IC50/EC50, Basal_Viability ATP Colo 320 (assay number 27) ([9]; basal) [µM] | IC50/EC50, VEGF_ADSC\ECFC Angio CD31 TubeArea (assay number 2) [10] [µM] | other results |
| --- | --- | --- | --- | --- | --- | --- | --- | --- | --- | --- | --- | --- | --- | --- | --- |
| O=C(OCCO)c1ccccc1O [NCGC00159379-04] | > 10 | > 10 |  |  |  |  |  |  |  |  |  |  |  |  | Basal_Viability ATP HT-29 IC50/EC50 ([1]; concentration response): > 20 µM; GSK3b inh pretreated_Viability ATP HCT116 IC50/EC50 ([2]; concentration response): > 20 µM; Basal_Viability ATP SW480 IC50/EC50 ([4]; concentration response): > 20 µM; Basal_Viability ATP SNU-C1 IC50/EC50 ([5]; concentration response): > 20 µM; Basal_Viability ATP RKO IC50/EC50 ([6]; concentration response): > 20 µM; Basal_Viability ATP DLD-1 IC50/EC50 ([7]; concentration response): > 20 µM; Basal_Viability ATP HCT116 IC50/EC50 ([8]; concentration response): > 20 µM; Basal_Viability ATP Colo 320 IC50/EC50 ([9]; concentration response): > 20 µM |
| COC(=O)C1=C(C)NC(C)=C(C(=O)O[C@@H]2CCCN(Cc3ccccc3)C2)[C@@H]1c1cccc([N+](=O)[O-])c1.Cl [NCGC00185768-01] | > 10 | > 10 | 5.3147 | 4.2797 |  |  |  |  |  |  |  |  |  |  | Basal_Viability ATP HT-29 IC50/EC50 [1]: 5.2728 µM; Basal_Viability ATP SW480 IC50/EC50 [4]: > 20 µM; Basal_Viability ATP SNU-C1 IC50/EC50 [5]: 5.7601 µM; Basal_Viability ATP RKO IC50/EC50 [6]: 8.0546 µM; Basal_Viability ATP DLD-1 IC50/EC50 [7]: 7.9596 µM; Basal_Viability ATP Colo 320 IC50/EC50 [9]: 19.5148 µM |
| COCC(C)N(C(=O)CCl)c1c(C)csc1C (centres unmarked) [NCGC00163935-05] | > 10 | > 10 | > 20 | > 20 |  |  |  |  |  |  |  |  |  |  | Basal_Viability ATP HT-29 IC50/EC50 ([1]; basal): > 20 µM; Basal_Viability ATP SW480 IC50/EC50 ([4]; basal): > 20 µM; Basal_Viability ATP SNU-C1 IC50/EC50 ([5]; basal): > 20 µM; Basal_Viability ATP RKO IC50/EC50 ([6]; basal): > 20 µM; Basal_Viability ATP DLD-1 IC50/EC50 ([7]; basal): > 20 µM; Basal_Viability ATP Colo 320 IC50/EC50 ([9]; basal): > 20 µM |
| C=CCN1CC[C@]23CCCC[C@H]2[C@H]1Cc1ccc(O)cc13 [NCGC00162247-06] |  |  |  |  | > 20 | > 20 | > 10 | > 20 | > 20 | > 20 | > 20 | > 20 | > 20 | > 10 |  |
| ClC1=C(Cl)C2(Cl)C(CBr)CC1(Cl)C2(Cl)Cl (centres unmarked) [NCGC00166203-02] |  |  |  |  | > 20 | > 20 | 9.9697 | > 20 | > 20 | > 20 | > 20 | > 20 | > 20 | > 10 |  |
| CN(C)c1ccc(C(=C2C=CC(=[N+](C)C)C=C2)c2ccccc2)cc1 [NCGC00013058-02] |  |  |  |  |  |  |  |  |  |  |  |  |  |  | IC50 ([1]; read-out: Basal_Viability ATP HT-29 summarized IC50): 9.82 nM; IC50 ([2]; read-out: GSK3b inh pretreated_Viability ATP HCT116 summarized IC50): 9.83 nM; IC50 ([3]; read-out: VEGF_ADSC\ECFC Angio Hoechst NucArea summarized IC50): 1720 nM; IC50 ([4]; read-out: Basal_Viability ATP SW480 summarized IC50): 9.22 nM; IC50 ([5]; read-out: Basal_Viability ATP SNU-C1 summarized IC50): 35.4 nM; IC50 ([6]; read-out: Basal_Viability ATP RKO summarized IC50): 118 nM; IC50 ([7]; read-out: Basal_Viability ATP DLD-1 summarized IC50): 21.8 nM; IC50 ([8]; read-out: Basal_Viability ATP HCT116 summarized IC50): 17.9 nM; IC50 ([9]; read-out: Basal_Viability ATP Colo 320 summarized IC50): 161 nM; IC50 ([10]; read-out: VEGF_ADSC\ECFC Angio CD31 TubeArea summarized IC50): 60.5 nM |
| CC(CC=O)CCCC(C)(C)O (centres unmarked) [NCGC00181031-03] | > 10 | > 10 | > 20 | > 20 |  |  |  |  |  |  |  |  |  |  | Basal_Viability ATP HT-29 IC50/EC50 ([1]; basal): > 20 µM; Basal_Viability ATP SW480 IC50/EC50 ([4]; basal): > 20 µM; Basal_Viability ATP SNU-C1 IC50/EC50 ([5]; basal): > 20 µM; Basal_Viability ATP RKO IC50/EC50 ([6]; basal): > 20 µM; Basal_Viability ATP DLD-1 IC50/EC50 ([7]; basal): > 20 µM; Basal_Viability ATP Colo 320 IC50/EC50 ([9]; basal): > 20 µM |
| CSc1ccc(/C=C2/C(C)=C(CC(=O)O)c3cc(F)ccc32)cc1 [NCGC00161601-02] |  |  |  |  | > 20 | > 20 | > 10 | 19.964 | 11.9864 | > 20 | > 20 | > 20 | > 20 | > 10 |  |
